Data reported in BindingDB's records for patent US20230303553 (Jiangsu Tasly Diyi Pharmaceutical, 2023).

Target: Cyclin-dependent kinase 6 (Homo sapiens, UniProt Q00534)
Experiment: CDK6 Kinase Activity Analysis and Detection Method

Chain of Cyclin-dependent kinase 6 (Q00534 whole entry): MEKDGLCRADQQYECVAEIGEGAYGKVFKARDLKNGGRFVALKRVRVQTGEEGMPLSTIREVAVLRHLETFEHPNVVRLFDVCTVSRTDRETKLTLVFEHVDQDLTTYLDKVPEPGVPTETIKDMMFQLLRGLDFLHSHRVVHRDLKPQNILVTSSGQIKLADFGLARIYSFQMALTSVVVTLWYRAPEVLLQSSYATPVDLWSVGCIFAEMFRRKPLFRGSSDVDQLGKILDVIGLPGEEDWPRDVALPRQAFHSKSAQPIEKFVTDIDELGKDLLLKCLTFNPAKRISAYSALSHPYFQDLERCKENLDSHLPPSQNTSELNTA

`CCN1CCN(C(=O)c2ccc(Nc3ncc(F)c(-c4ccc5nc(C)sc5c4)n3)nc2)CC1` [US20230303553, Example 12] gave an IC50 of 0.127 µM.
